Laboratory results as given in ChEMBL document CHEMBL1143196, “Discovery of kinase inhibitors by high-throughput docking and scoring based on a transferable linear interaction energy model” (J Med Chem, 2008).

What was measured:
[1] = target: Epidermal growth factor receptor (Homo sapiens, UniProt P00533)
[2] = Inhibition of CDK2/Cyclin A
[3] = cells; details: T-cell

Epidermal growth factor receptor, sequence (P00533 whole entry): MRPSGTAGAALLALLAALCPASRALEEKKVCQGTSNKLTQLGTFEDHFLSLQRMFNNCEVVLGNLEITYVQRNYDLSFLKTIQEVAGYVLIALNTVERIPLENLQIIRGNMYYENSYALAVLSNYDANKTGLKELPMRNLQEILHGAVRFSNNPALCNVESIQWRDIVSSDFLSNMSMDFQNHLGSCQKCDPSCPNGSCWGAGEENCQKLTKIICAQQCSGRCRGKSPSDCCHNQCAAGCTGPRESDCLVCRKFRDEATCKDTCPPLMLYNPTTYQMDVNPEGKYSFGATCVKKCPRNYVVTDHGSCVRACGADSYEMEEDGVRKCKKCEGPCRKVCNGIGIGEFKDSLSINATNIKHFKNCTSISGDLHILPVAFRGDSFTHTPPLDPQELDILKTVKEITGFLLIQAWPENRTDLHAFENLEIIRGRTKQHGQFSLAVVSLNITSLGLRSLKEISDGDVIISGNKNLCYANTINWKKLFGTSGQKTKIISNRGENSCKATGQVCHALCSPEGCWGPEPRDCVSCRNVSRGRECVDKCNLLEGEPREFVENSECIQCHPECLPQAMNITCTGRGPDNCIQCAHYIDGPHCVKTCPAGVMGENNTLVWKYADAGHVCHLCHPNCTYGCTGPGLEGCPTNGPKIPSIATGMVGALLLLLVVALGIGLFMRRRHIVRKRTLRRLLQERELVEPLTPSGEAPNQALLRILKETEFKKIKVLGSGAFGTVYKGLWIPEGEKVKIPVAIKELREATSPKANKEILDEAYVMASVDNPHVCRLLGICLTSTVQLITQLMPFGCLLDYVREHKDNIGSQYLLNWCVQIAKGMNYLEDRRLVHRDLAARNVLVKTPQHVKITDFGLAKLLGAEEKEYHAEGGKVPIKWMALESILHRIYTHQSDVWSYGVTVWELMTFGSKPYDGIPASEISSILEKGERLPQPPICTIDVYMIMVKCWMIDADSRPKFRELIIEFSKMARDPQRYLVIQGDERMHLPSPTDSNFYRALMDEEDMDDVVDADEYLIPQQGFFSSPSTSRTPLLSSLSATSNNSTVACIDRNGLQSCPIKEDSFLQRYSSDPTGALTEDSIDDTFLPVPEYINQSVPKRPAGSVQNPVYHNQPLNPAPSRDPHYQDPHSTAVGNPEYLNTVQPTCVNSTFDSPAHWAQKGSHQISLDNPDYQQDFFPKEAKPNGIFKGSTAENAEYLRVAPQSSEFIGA

Row | Compound | IC50 [1] | also measured
1 | Brc1cccc(Nc2ncnc3ccncc23)c1 | 35.5 nM | 
2 | CNc1ncc2ncnc(Nc3ccccc3)c2n1 | 13.2 nM | 
3 | Nc1cc(Br)ccc1Nc1ncnc2ccncc12 | 25.7 nM | 
4 | C=CCCCCOc1nc(N)nc2[nH]cnc12 |  | IC50 [2]: 47000 nM
5 | C=C(COc1nc(N)nc2nc[nH]c12)c1ccccc1 |  | IC50 [2]: 34000 nM
6 | Cc1cccc(Nc2ncnc3cnc(N(C)C)nc23)c1 | 4.07 nM | 
7 | Cc1cccc(Cl)c1Nc1nc2ccc(N3CCN(C=O)CC3)cc2n2cncc12 |  | IC50 [3]: 530 nM
8 | CNc1ncc2ncnc(Nc3cccc(Br)c3)c2n1 | 0.776 nM | 
9 | Cc1cccc(Cl)c1Nc1nc2cc(NCCN(C)C)ccc2n2cncc12 |  | IC50 [3]: 520 nM
10 | OCCNc1c(Br)cccc1Nc1ncnc2ccncc12 | 0.245 nM | 
11 | CCCCOc1nc(N)nc2[nH]cnc12 |  | IC50 [2]: 48000 nM
12 | O=C(O)CCCNc1c(Br)cccc1Nc1ncnc2ccncc12 | 0.282 nM | 
13 | CNc1ccc2ncnc(Nc3cccc(Br)c3)c2n1 | 3.16 nM | 
14 | Cc1cccc(Cl)c1Nc1nc2ccc(NCCN3CCOCC3)cc2n2cncc12 |  | IC50 [3]: 1300 nM
15 | Clc1cc2c(Nc3cccc(Br)c3)ncnc2cn1 | 40.7 nM | 
16 | Cc1cccc(Cl)c1Nc1nc2ccc(N3CC(C)NC(C)C3)cc2n2cncc12 (stereo not given) |  | IC50 [3]: 340 nM
17 | OCC(O)CNc1c(Br)cccc1Nc1ncnc2ccncc12 (stereo not given) | 0.933 nM | 
18 | CCC(COc1nc(N)nc2[nH]cnc12)(OC)OC |  | IC50 [2]: 20000 nM
19 | O=C(O)CCNc1c(Br)cccc1Nc1ncnc2ccncc12 | 0.617 nM | 
20 | COc1ccc2ncnc(Nc3ccccc3)c2c1 [listing 1 of 2 here] | 56.2 nM | 
21 | OCCN(CCO)CCNc1c(Br)cccc1Nc1ncnc2ccncc12 | 9.33 nM | 
22 | Cc1cccc(Cl)c1Nc1nc2ccc(N3CCN(C)CC3)cc2n2cncc12 |  | IC50 [3]: 240 nM
23 | Fc1ccc2ncnc(Nc3cccc(Br)c3)c2n1 | 44.7 nM | 
24 | CNc1ccc2ncnc(Nc3cccc(Br)c3)c2c1 | 4.07 nM | 
25 | O=[N+]([O-])c1ccc2c(Nc3cccc(I)c3)ncnc2c1 | 550 nM | 
26 | COc1cccc2nc(Nc3c(C)cccc3Cl)c3cncn3c12 |  | IC50 [3]: 2300 nM

Row | Compound | IC50 [1] | also measured
27 | Brc1cccc(Nc2ncnc3ccncc23)c1NCCCCN1CCOCC1 | 5.5 nM | 
28 | CN(C)c1ccc2ncnc(Nc3cccc(Br)c3)c2c1 | 85.1 nM | 
29 | Cc1cccc(Cl)c1Nc1nc2cc(NCCCN(C)C)ccc2n2cncc12 |  | IC50 [3]: 480 nM
30 | Nc1nc(OCC2CC=CCC2)c2[nH]cnc2n1 (stereo not given) |  | IC50 [2]: 13000 nM
31 | Cc1cccc(Cl)c1Nc1nc2cc3c(cc2n2cncc12)OCO3 |  | IC50 [3]: 2000 nM
32 | Nc1cc2ncnc(Nc3ccccc3N)c2cn1 | 5370 nM | 
33 | Fc1cc2c(Nc3cccc(Br)c3)ncnc2cn1 | 126 nM | 
34 | Nc1c(Nc2ncnc3ccncc23)cccc1[N+](=O)[O-] | 40.7 nM | 
35 | Cc1cccc(Cl)c1Nc1nc2ccc(NCCN(C)C)cc2n2cncc12 |  | IC50 [3]: 880 nM
36 | CCCOc1nc(N)nc2[nH]cnc12 |  | IC50 [2]: 67000 nM
37 | COc1cc2ncnc(Nc3cccc(C(F)(F)F)c3)c2cc1OC | 0.245 nM | 
38 | Nc1nc(OCc2ccccc2)c2nc[nH]c2n1 [6-O-BENZYLGUANINE] |  | IC50 [2]: 35000 nM
39 | Cc1cccc(Cl)c1Nc1nc2ccc(NCCCN3CCOCC3)cc2n2cncc12 |  | IC50 [3]: 760 nM
40 | CCC(C)COc1nc(N)nc2[nH]cnc12 (stereo not given) |  | IC50 [2]: 15000 nM
41 | Cc1cccc(Cl)c1Nc1nc2cc(N3CC(C)NC(C)C3)ccc2n2cncc12 (stereo not given) |  | IC50 [3]: 570 nM
42 | Nc1c(F)cccc1Nc1ncnc2ccncc12 | 851 nM | 
43 | CN1CCN(CCCNc2c(Br)cccc2Nc2ncnc3ccncc23)CC1 | 5.01 nM | 
44 | Cc1cccc(Nc2ncnc3cnc(N)nc23)c1 | 17.4 nM | 
45 | O=C(O)CNc1c(Br)cccc1Nc1ncnc2ccncc12 | 1.51 nM | 
46 | COc1ccc2ncnc(Nc3cccc(Br)c3)c2n1 | 4.37 nM | 
47 | CN(C)CCN(C)c1c(Br)cccc1Nc1ncnc2ccncc12 | 40.7 nM | 
48 | COc1cc2c(cc1NCCN(C)C)nc(Nc1c(F)cccc1Cl)c1cncn12 |  | IC50 [3]: 240 nM
49 | CN(C)CCNc1c(Br)cccc1Nc1ncnc2ccncc12 | 45.7 nM | 
50 | Brc1cccc(Nc2ncnc3ccncc23)c1NCCCn1ccnc1 | 0.513 nM | 
51 | Oc1cc2ncnc(Nc3cccc(Br)c3)c2cc1O | 0.174 nM | 
52 | CN(CC(O)CO)c1c(Br)cccc1Nc1ncnc2ccncc12 (stereo not given) | 3.24 nM | 

Row | Compound | IC50 [1] | also measured
53 | Cc1cccc(Nc2ncnc3cnc(NCCN4CCOCC4)nc23)c1 | 2.34 nM | 
54 | CN(C)CCCCNc1c(Br)cccc1Nc1ncnc2ccncc12 | 7.41 nM | 
55 | CC(=O)Nc1ccc2c(Nc3cccc(Br)c3)ncnc2c1 | 40.7 nM | 
56 | CN(C)c1ccc2c(Nc3cccc(Br)c3)ncnc2c1 | 11.2 nM | 
57 | OCCN(CCO)c1c(Br)cccc1Nc1ncnc2ccncc12 | 12 nM | 
58 | COc1cc2nc(Nc3c(C)cccc3Cl)c3cncn3c2cc1OC |  | IC50 [3]: 670 nM
59 | Nc1ccc2ncnc(Nc3cccc(Br)c3)c2n1 | 7.76 nM | 
60 | Brc1cccc(Nc2ncnc3cnc(NCCn4ccnc4)nc23)c1 | 2.34 nM | 
61 | Cc1cccc(Cl)c1Nc1nc2cc(N3CCNCC3)ccc2n2cncc12 |  | IC50 [3]: 1000 nM
62 | Cc1cccc(Cl)c1Nc1nc2cc3c(cc2n2cncc12)OCCO3 |  | IC50 [3]: 2200 nM
63 | COc1cc2ncnc(Nc3ccccc3)c2cc1OC | 29.5 nM | 
64 | Nc1ccccc1Nc1ncnc2ccncc12 | 251 nM | 
65 | Ic1cccc(Nc2ncnc3ccccc23)c1 | 81.3 nM | 
66 | CCN(CC)c1ccc2c(c1)nc(Nc1c(C)cccc1Cl)c1cncn12 |  | IC50 [3]: 1700 nM
67 | Cc1cccc(Nc2ncnc3ccncc23)c1NCCCn1ccnc1 | 3.55 nM | 
68 | Brc1cccc(Nc2ncnc3cccnc23)c1 | 34.7 nM | 
69 | Brc1cccc(Nc2ncnc3ccncc23)c1NCCN1CCOCC1 | 3.24 nM | 
70 | COc1cc2c(cc1NCCN1CCOCC1)nc(Nc1c(C)cccc1Cl)c1cncn12 |  | IC50 [3]: 280 nM
71 | COc1cc2c(cc1NCCN(C)C)nc(Nc1c(C)cccc1Cl)c1cncn12 |  | IC50 [3]: 190 nM
72 | Cc1cccc(Cl)c1Nc1nc2cc(O)c(O)cc2n2cncc12 |  | IC50 [3]: > 9000 nM
73 | CNc1cc2ncnc(Nc3cccc(Br)c3)c2cc1[N+](=O)[O-] | 69.2 nM | 
74 | Clc1cccc(Nc2ncnc3ccccc23)c1 | 23.4 nM | 
75 | COc1ccc2nc(Nc3c(C)cccc3Cl)c3cncn3c2c1 |  | IC50 [3]: 1400 nM
76 | OCCN(CCO)CCCNc1c(Br)cccc1Nc1ncnc2ccncc12 | 1.2 nM | 
77 | Nc1c(Cl)cccc1Nc1ncnc2ccncc12 | 120 nM | 
78 | CN(CCO)c1c(Br)cccc1Nc1ncnc2ccncc12 | 2.63 nM | 

Row | Compound | IC50 [1] | also measured
79 | CN(C)c1ccc2c(Nc3cccc(Br)c3)ncnc2n1 | 331 nM | 
80 | Clc1ncc2ncnc(Nc3cccc(Br)c3)c2n1 | 83.2 nM | 
81 | CCN1CCN(c2ccc3nc(Nc4c(C)cccc4Cl)c4cncn4c3c2)CC1 |  | IC50 [3]: 270 nM
82 | Cc1cccc(Nc2ncnc3ccncc23)c1NCCCCN(C)C | 5.5 nM | 
83 | CC(=O)Nc1c(Br)cccc1Nc1ncnc2ccncc12 | 29.5 nM | 
84 | CN(C)CCCNc1c(Br)cccc1Nc1ncnc2ccncc12 | 8.91 nM | 
85 | Nc1c(O)cccc1Nc1ncnc2ccncc12 | 70.8 nM | 
86 | CCNc1ccc2nc(Nc3c(C)cccc3Cl)c3cncn3c2c1 |  | IC50 [3]: 2200 nM
87 | Cc1cccc(Cl)c1Nc1nc2cc(N3CCN(C)CC3)ccc2n2cncc12 |  | IC50 [3]: 720 nM
88 | Cc1cccc(Cl)c1Nc1nc2ccc(N3CCNCC3)cc2n2cncc12 |  | IC50 [3]: 380 nM
89 | Nc1cc(C(F)(F)F)ccc1Nc1ncnc2ccncc12 | 4790 nM | 
90 | Oc1ccc2c(Nc3cccc(Br)c3)ncnc2c1 | 4.79 nM | 
91 | Cc1cccc(Cl)c1Nc1nc2ccc(N(C)C)cc2n2cncc12 |  | IC50 [3]: 2000 nM
92 | COc1cc2c(cc1OCCN1CCOCC1)nc(Nc1c(C)cccc1Cl)c1cncn12 |  | IC50 [3]: 470 nM
93 | CN(C)c1cccc(Nc2ncnc3ccncc23)c1N | 1820 nM | 
94 | Cc1cccc(Cl)c1Nc1nc2cc(N3CCOCC3)ccc2n2cncc12 |  | IC50 [3]: 1000 nM
95 | COc1ccc2ncnc(Nc3cccc(Br)c3)c2c1 | 355 nM | 
96 | COc1ccc(Nc2ncnc3ccncc23)c(N)c1 | 676 nM | 
97 | O=S(=O)(O)CCNc1c(Br)cccc1Nc1ncnc2ccncc12 | 1.41 nM | 
98 | Brc1cccc(Nc2ncnc3ccccc23)c1 | 27.5 nM | 
99 | COc1cccc(Nc2ncnc3ccncc23)c1N | 132 nM | 
100 | COc1cc2ncnc(Nc3ccc(Br)cc3)c2cc1OC | 0.0724 nM | 
101 | Cc1cccc(Cl)c1Nc1nc2ccc(N3CCCN(C)CC3)cc2n2cncc12 |  | IC50 [3]: 540 nM
102 | O=[N+]([O-])c1ccc2ncnc(Nc3cccc(Br)c3)c2c1 | 912 nM | 
103 | Brc1cccc(Nc2ncnc3ccncc23)c1NCCc1c[nH]cn1 | 0.912 nM | 
104 | Cc1cccc(Nc2ncnc3ccncc23)c1NCCCN1CCN(C)CC1 | 5.62 nM | 

Row | Compound | IC50 [1] | also measured
105 | NNc1c(Br)cccc1Nc1ncnc2ccncc12 | 7.24 nM | 
106 | COc1cc2nc(Nc3c(C)cccc3Cl)c3cncn3c2cc1N1CC(C)NC(C)C1 (stereo not given) |  | IC50 [3]: 760 nM
107 | CN(C)c1ccc2ncnc(Nc3cccc(Br)c3)c2n1 | 9.77 nM | 
108 | COc1cc2ncnc(Nc3ccccc3N)c2cn1 | 3720 nM | 
109 | COc1cc2nc(Nc3c(C)cccc3C)c3cncn3c2cc1OC |  | IC50 [3]: 1100 nM
110 | COc1ccc2c(c1)nc(Nc1c(C)cccc1Cl)c1cncn12 |  | IC50 [3]: 2600 nM
111 | CN(CC(=O)O)c1c(Br)cccc1Nc1ncnc2ccncc12 | 16.2 nM | 
112 | Cc1cccc(Cl)c1Nc1nc2ccc(N)cc2n2cncc12 |  | IC50 [3]: 1600 nM
113 | COc1ccc(CNc2cc3c(Nc4cccc(Br)c4)ncnc3cn2)cc1 | 2.34 nM | 
114 | Cc1cccc(Cl)c1Nc1nc2ccc(N3CCOCC3)cc2n2cncc12 |  | IC50 [3]: 780 nM
115 | CCN(CC)c1ccc2nc(Nc3c(C)cccc3Cl)c3cncn3c2c1 |  | IC50 [3]: 2600 nM
116 | CN(C)c1ccc(Nc2ncnc3ccncc23)c(N)c1 | 4900 nM | 
117 | Brc1cccc(Nc2ncnc3ccncc23)c1NCCCN1CCOCC1 | 1.91 nM | 
118 | CN(C)CCCCCNc1c(Br)cccc1Nc1ncnc2ccncc12 | 8.51 nM | 
119 | FC(F)(F)c1cccc(Nc2ncnc3ccccc23)c1 | 589 nM | 
120 | CC(=O)Nc1ccc2nc(Nc3c(C)cccc3Cl)c3cncn3c2c1 |  | IC50 [3]: 1400 nM
121 | CN(C)c1cc2ncnc(Nc3cccc(Br)c3)c2cc1N | 162 nM | 
122 | CCCOc1cc2ncnc(Nc3cccc(Br)c3)c2cc1OCCC | 0.174 nM | 
123 | Nc1ccccc1Nc1ncnc2cc(Br)ncc12 | 245 nM | 
124 | Fc1c(Br)cccc1Nc1ncnc2ccncc12 | 13.2 nM | 
125 | Nc1cc2c(Nc3cccc(Br)c3)ncnc2cc1Cl | 6.61 nM | 
126 | COc1cc2c(Nc3cccc(Br)c3)ncnc2cn1 | 2.63 nM | 
127 | COc1ccc2ncnc(Nc3ccccc3)c2c1 [listing 2 of 2 here] | 120 nM | 
128 | OCN(CO)c1c(Br)cccc1Nc1ncnc2ccncc12 | 14.1 nM | 
129 | COc1c(Br)cccc1Nc1ncnc2ccncc12 | 39.8 nM | 
130 | Nc1c(Br)cccc1Nc1ncnc2ccncc12 | 10 nM | 
